Experiments:
Integrin alpha-V/beta-3 [1] = target: T1, Integrin alpha-V/beta-3 (Homo sapiens, UniProt P05106+P06756); experiment: Inhibition of binding to alpha v beta 3 receptor; format: protein-complex assay
Integrin alpha-V/beta-3 [2] = target: T1, Integrin alpha-V/beta-3; experiment: Inhibition of alpha v beta 3 receptor binding; format: protein-complex assay
[3] = Partition coefficient (logP); format: physicochemical; conditions: octanol/water
[4] = Concentration required for plasma clearance is determined in dogs; format: ADME, organism-based, Canis lupus familiaris; conditions: dog
[5] = Half life of compound is determined in dogs; format: ADME, Canis lupus familiaris; conditions: dog, in vivo
[6] = Oral bioavailability in dog; format: ADME, organism-based, Canis lupus familiaris; conditions: in vivo

T1 sequence (P05106 27-788 limits assumed): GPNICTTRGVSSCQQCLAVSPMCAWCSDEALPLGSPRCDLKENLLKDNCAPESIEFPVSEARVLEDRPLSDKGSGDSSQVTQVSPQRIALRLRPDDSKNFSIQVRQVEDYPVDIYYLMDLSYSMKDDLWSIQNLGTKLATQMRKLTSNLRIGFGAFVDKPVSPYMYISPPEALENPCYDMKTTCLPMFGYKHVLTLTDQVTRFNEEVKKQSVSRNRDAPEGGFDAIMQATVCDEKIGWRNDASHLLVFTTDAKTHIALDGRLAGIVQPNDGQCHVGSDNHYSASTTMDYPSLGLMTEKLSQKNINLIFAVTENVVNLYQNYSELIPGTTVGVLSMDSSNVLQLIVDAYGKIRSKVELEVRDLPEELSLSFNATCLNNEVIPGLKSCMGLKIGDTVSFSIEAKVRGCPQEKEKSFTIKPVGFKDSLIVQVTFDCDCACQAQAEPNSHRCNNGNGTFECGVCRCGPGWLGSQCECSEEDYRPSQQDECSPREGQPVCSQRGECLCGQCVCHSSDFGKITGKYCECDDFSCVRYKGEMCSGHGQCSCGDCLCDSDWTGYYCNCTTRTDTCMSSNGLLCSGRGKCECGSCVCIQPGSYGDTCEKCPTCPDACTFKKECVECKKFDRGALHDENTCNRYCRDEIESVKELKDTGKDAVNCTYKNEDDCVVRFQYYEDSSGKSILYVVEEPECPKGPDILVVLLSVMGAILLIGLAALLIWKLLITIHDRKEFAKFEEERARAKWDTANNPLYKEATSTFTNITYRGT
T1 sequence (P06756 31-889 limits assumed): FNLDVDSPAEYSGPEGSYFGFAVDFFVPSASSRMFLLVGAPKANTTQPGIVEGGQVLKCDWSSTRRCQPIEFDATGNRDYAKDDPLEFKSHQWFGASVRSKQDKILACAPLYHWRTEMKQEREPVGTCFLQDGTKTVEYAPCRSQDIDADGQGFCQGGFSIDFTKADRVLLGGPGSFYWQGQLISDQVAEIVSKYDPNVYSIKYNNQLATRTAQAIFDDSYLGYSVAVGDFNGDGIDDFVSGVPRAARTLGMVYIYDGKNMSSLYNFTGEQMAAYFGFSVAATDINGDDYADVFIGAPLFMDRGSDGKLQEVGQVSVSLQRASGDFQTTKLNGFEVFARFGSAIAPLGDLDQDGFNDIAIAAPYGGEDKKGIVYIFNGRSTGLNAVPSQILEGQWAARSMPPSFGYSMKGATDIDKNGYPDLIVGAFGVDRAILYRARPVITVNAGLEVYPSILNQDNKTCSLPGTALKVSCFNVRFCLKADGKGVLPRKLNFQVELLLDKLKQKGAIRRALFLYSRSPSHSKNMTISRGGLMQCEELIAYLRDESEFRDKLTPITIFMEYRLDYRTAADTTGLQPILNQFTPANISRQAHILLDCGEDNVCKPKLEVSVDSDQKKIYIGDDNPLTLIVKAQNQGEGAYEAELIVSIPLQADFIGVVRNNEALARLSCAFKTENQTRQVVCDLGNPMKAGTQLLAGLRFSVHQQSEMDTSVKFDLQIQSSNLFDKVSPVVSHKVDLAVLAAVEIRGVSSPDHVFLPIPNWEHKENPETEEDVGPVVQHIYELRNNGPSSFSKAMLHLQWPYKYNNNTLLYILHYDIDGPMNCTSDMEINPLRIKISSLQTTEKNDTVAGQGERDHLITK
T1 sequence (P06756 891-1048 limits assumed): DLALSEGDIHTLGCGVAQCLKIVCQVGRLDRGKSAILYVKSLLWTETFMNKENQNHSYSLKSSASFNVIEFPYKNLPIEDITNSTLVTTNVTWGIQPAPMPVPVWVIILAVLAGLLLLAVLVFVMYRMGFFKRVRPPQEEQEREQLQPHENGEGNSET

Compound | IC50 (Integrin alpha-V/beta-3 [1]) | IC50 (Integrin alpha-V/beta-3 [2]) | other results
CC1(C)[C@@H]2CC[C@@]1(CS(=O)(=O)N[C@@H](CCCCCCCc1ccc3c(n1)NCCC3)C(=O)O)C(=O)C2 | 0.8 nM | – | –
O=C(O)[C@H](CCCCCCCc1ccc2c(n1)NCCC2)NS(=O)(=O)c1ccccc1 | 11.2 nM | – | –
O=C(NCc1ccccc1)N[C@@H](CCCCCCCc1ccc2c(n1)NCCC2)C(=O)O | 4.7 nM | – | –
O=C(O)[C@H](CCCCCCCc1ccc2c(n1)NCCC2)NS(=O)(=O)C1CCCCC1 | 49.8 nM | – | –
O=C(CCCCc1ccc2c(n1)NCCC2)NC[C@H](NC(=O)OCc1ccccc1)C(=O)O | – | 1.8 nM | –
Cc1ccc(S(=O)(=O)N[C@@H](CNC(=O)CCCCc2ccc3c(n2)NCCC3)C(=O)O)cc1 | – | 0.4 nM | –
CCCCS(=O)(=O)N[C@@H](CCCCCCCc1ccc2c(n1)NCCC2)C(=O)O | 21.3 nM | – | –
O=C(Cc1ccccc1)N[C@@H](CCCCCCCc1ccc2c(n1)NCCC2)C(=O)O | 51.6 nM | – | logP [3]: 1.13; clearance [4]: 13 mL/min/kg; half-life [5]: 19.2 h; bioavailability [6]: 17%
O=C(CCCCc1ccc2c(n1)NCCC2)NC[C@H](NS(=O)(=O)c1ccccc1)C(=O)O | – | 0.3 nM | –
O=C(CCCCc1ccc2c(n1)NCCC2)NC[C@H](NC(=O)c1ccccc1)C(=O)O | – | 73.8 nM | –
O=C(N[C@@H](CCCCCCCc1ccc2c(n1)NCCC2)C(=O)O)OCc1ccccc1 | 6.1 nM | – | –
O=C(O)[C@H](CCCCCCCc1ccc2c(n1)NCCC2)NS(=O)(=O)Cc1ccccc1 | 34.5 nM | – | –
O=C(O)[C@H](CCCCCCCc1ccc2c(n1)NCCC2)NS(=O)(=O)CC1CCCCC1 | 18.1 nM | – | –
CCCCS(=O)(=O)N[C@@H](CNC(=O)CCCCc1ccc2c(n1)NCCC2)C(=O)O | – | 2.3 nM | –
O=C(N[C@@H](CCCCCCCc1ccc2c(n1)NCCC2)C(=O)O)c1ccccc1 | 71.7 nM | – | –
CC1(C)[C@@H]2CC[C@@]1(CS(=O)(=O)N[C@@H](CNC(=O)CCCCc1ccc3c(n1)NCCC3)C(=O)O)C(=O)C2 | – | 0.1 nM | –

From ChEMBL document CHEMBL1137175, “Nonpeptide alpha V beta 3 antagonists. Part 9: Improved pharmacokinetic profile through the use of an aliphatic, des-amide backbone” (Bioorg Med Chem Lett, 2004)
